One data set deals with M. tuberculosis H37Rv. Briefly: Minimum bactericidal concentration (MBC, CFU Assay). The conditions noted are these: for MBC: Mycobacterium tuberculosis, 168 h, Day 7, M. tuberculosis H37Rv, ≥99% reduction in colony forming units, read-out: MBC99 Day 7 (CFU Assay) MBC99. The class given is cell-based, Mycobacterium tuberculosis.
Another data set has as its system MTB H37Rv ATCC 27294. Description: MIC, microplate Alamar Blue assay (MABA). As to conditions: for MIC: Mycobacterium tuberculosis, MTB H37Rv ATCC 27294, microplate Alamar Blue assay, lowest concentration giving ≥90% reduction in fluorescence, read-out: MIC90 MABA. The class given is cell-based, Mycobacterium tuberculosis. A general note: Alamar Blue is a resazurin reagent that responds to reducing activity.

Data set [1] concerns the target T1, E. coli D516V (RIF^R) RNAP (Escherichia coli, UniProt P0A8V2, D516V).
T1 construct: made in house
Briefly: biochemical.

The target of data set [2] is T2, E. coli S531L (RIF^R) RNAP (Escherichia coli, UniProt P0A8V2, S531L).
T2 construct: made in house
Briefly: biochemical.

In a further data set the target is T3, E. coli WT RNAP (Escherichia coli, UniProt P0A8V2).
T3 construct: made in house
Briefly: biochemical.

The test system of the next data set is DPX2 cells. As to conditions: for DPX2 Viability @ 6.25 μM: 24 h; for DPX2 Viability @ 25 μM: human.
The subject of a further data set is VERO cells (ATCC CRL-81). Description: Vero cell toxicity. The conditions noted are these: Chlorocebus sabaeus, Vero; 72 hours exposure. The class given is cell-based. On the procedure: Cytotoxicity for a mammalian cell line was determined by exposing VERO cells (ATCC CRL-81) to serial dilutions of test compounds for 72 hours, followed by addition of resazurin and measurement of fluorescence after 4 hours incubation (Choules, et al., Antimnicrob. Agents Chemother. 2019, 63, e02204-02218).

[3] abbreviates: CFU Assay MBC99 relative to rifampin (RMP = 1).

pIC50: −log10 of the molar value. ≈ marks a conversion by molar mass, not a printed value. Like-named read-outs stand apart in the source and are kept apart here.

This is an account of results in patent publication US20250188092A1, “RIFAMYCIN ANALOGS” (THE REGENTS OF THE UNIVERSITY OF MICHIGAN, priority 2021, published 2025).

In the case of `CO[C@H]1/C=C/O[C@@]2(C)Oc3c(C)c(O)c4c(=O)c(c5oc6cccc(OCCCCN7CCN(C)CC7)c6nc-5c4c3C2=O)NC(=O)/C(C)=C\C=C\[C@H](C)[C@H](O)[C@@H](C)[C@@H](O)[C@@H](C)[C@H](OC(C)=O)[C@@H]1C` [Compound 5a, (7S,9E,11S,12R,13S,14R,15R,16R,17S,18S,19E,21Z)-2,15,17-Trihydroxy-11-methoxy-3,7,12,14,16,18,22-heptamethyl-32-[4-(4-methylpiperazin-1-yl)butoxy]-6,23,37-trioxo-8,27,38-trioxa-24,34-diazahexacyclo[23.11.1.1^4,7.0^5,36.0^26,35.0^28,33]octatriaconta-1(36)2,4,9,19,21,25,28(33)29,31,34-undecaen-13-yl acetate], in the data set on M. tuberculosis H37Rv (setting [3]), the “MBC99 Day 7 (CFU Assay) MBC99 Rel to RMP” value is 0.77. In addition, the MBC with M. tuberculosis H37Rv was determined as 0.1 µM. For the same compound, the “MIC90 MABA Rel to RMP” value against MTB H37Rv ATCC 27294 came out at 3.1. Also, the MIC in the data set with MTB H37Rv ATCC 27294 is 0.092 µM. Moreover, the negative-log IC50 (pIC50) in data set [1] was 4.57; in data set [2], 3.10; at E. coli WT RNAP, 8.22; with VERO cells (ATCC CRL-81), less than 5.10. In the data set on DPX2 cells, the “DPX2 Viability @ 6.25 μM” value is recorded as 87%. Moreover, in the data set with DPX2 cells, the “DPX2 Viability @ 25 μM” value came to 47%.

On to `CO[C@H]1/C=C/O[C@@]2(C)Oc3c(C)c(O)c4c(=O)c(c5oc6cccc(OCCCCN7CCOCC7)c6nc-5c4c3C2=O)NC(=O)/C(C)=C\C=C\[C@H](C)[C@H](O)[C@@H](C)[C@@H](O)[C@@H](C)[C@H](OC(C)=O)[C@@H]1C` [Compound 5b, (7S,9E,11S,12R,13S,14R,15R,16R,17S,18S,19E,21Z)-2,15,17-Trihydroxy-11-methoxy-3,7,12,14,16,18,22-heptamethyl-32-[4-(morpholin-4-yl)butoxy]-6,23,37-trioxo-8,27,38-trioxa-24,34-diazahexacyclo[23.11.1.1^4,7.0^5,36.0^26,35.0^28,33]octatriaconta-1(36)2,4,9,19,21,25,28(33)29,31,34-undecaen-13-yl acetate], for which the “MBC99 Day 7 (CFU Assay) MBC99 Rel to RMP” value against M. tuberculosis H37Rv (setting [3]) is reported as 0.38. In addition, in the data set with M. tuberculosis H37Rv, the MBC is 0.05 µM. Besides, the “MIC90 MABA Rel to RMP” value with MTB H37Rv ATCC 27294 stood at 0.70. In the data set with MTB H37Rv ATCC 27294, the MIC came out at 0.021 µM. Moreover, the pIC50 in data set [1] was 4.19; in data set [2] it was 3.41; against E. coli WT RNAP, 8.15; in the data set with VERO cells (ATCC CRL-81), less than 5.10. In the data set with DPX2 cells, the “DPX2 Viability @ 6.25 μM” value is on record as 81%. Also, the “DPX2 Viability @ 25 μM” value in the data set with DPX2 cells was determined as 45%.

With `CO[C@H]1/C=C/O[C@@]2(C)Oc3c(C)c(O)c4c(=O)c(c5oc6cccc(OCCCCN7CCN(C(=O)OC(C)(C)C)CC7)c6nc-5c4c3C2=O)NC(=O)/C(C)=C\C=C\[C@H](C)[C@H](O)[C@@H](C)[C@@H](O)[C@@H](C)[C@H](OC(C)=O)[C@@H]1C` [Compound 5c, Tert-Butyl 4-(4-{[(7S,9E,11S,12R,13S,14R,15R,16R,17S,18S,19E,21Z)-13-(acetyloxy)-2,15,17-trihydroxy-11-methoxy-3,7,12,14,16,18,22-heptamethyl-6,23,37-trioxo-8,27,38-trioxa-24,34-diazahexacyclo[23.11.1.1^4,7.0^5,36.0^26,35.0^28,33]octatriaconta-1(36)2,4,9,19,21,25,28(33)29,31,34-undecaen-32-yl]oxy}butyl)piperazine-1-carboxylate], the “MBC99 Day 7 (CFU Assay) MBC99 Rel to RMP” value against M. tuberculosis H37Rv (setting [3]) is listed as 0.77. Besides, the MBC with M. tuberculosis H37Rv turned out to be 0.1 µM (≈ 0.104 µg/mL). The “MIC90 MABA Rel to RMP” value against MTB H37Rv ATCC 27294 was found to be 0.89. In addition, the MIC in the data set with MTB H37Rv ATCC 27294 is 0.024 µM (≈ 0.025 µg/mL). Moreover, the pIC50 in data set [1] was 4.66; in data set [2], 3.52; at E. coli WT RNAP, more than 8.30; in the data set on VERO cells (ATCC CRL-81) it was 5.21.

For the compound `CO[C@H]1/C=C/O[C@@]2(C)Oc3c(C)c(O)c4c(=O)c(c5oc6cc(N7CCN(CC(C)C)CC7)cc(OCCCCN7CCOCC7)c6nc-5c4c3C2=O)NC(=O)/C(C)=C\C=C\[C@H](C)[C@H](O)[C@@H](C)[C@@H](O)[C@@H](C)[C@H](OC(C)=O)[C@@H]1C` [Compound 6a, (7S,9E,11S,12R,13S,14R,15R,16R,17S,18S,19E,21Z)-2,15,17-Trihydroxy-11-methoxy-3,7,12,14,16,18,22-heptamethyl-30-[4-(2-methylpropyl)piperazin-1-yl]-32-[4-(morpholin-4-yl)butoxy]-6,23,37-trioxo-8,27,38-trioxa-24,34-diazahexacyclo[23.11.1.1^4,7.0^5,36.0^26,35.0^28,33]octatriaconta-1(36)2,4,9,19,21,25,28(33)29,31,34-undecaen-13-yl acetate], the “MBC99 Day 7 (CFU Assay) MBC99 Rel to RMP” value in the data set with M. tuberculosis H37Rv was determined as 0.08. Moreover, in the data set with M. tuberculosis H37Rv, the MBC is 0.01 µM. In addition, the “MIC90 MABA Rel to RMP” value in the data set with MTB H37Rv ATCC 27294 amounted to 0.80. In addition, the MIC with MTB H37Rv ATCC 27294 amounted to 0.092 µM. For the same compound, the pIC50 in data set [1] was 4.41; in data set [2] it was 4.10; against E. coli WT RNAP, 8.22; with VERO cells (ATCC CRL-81), less than 5.10. In addition, in the data set on DPX2 cells, the “DPX2 Viability @ 6.25 μM” value came to 102%. Also, in the data set with DPX2 cells, the “DPX2 Viability @ 25 μM” value stood at 86%.

On to `CO[C@H]1/C=C/O[C@@]2(C)Oc3c(C)c(O)c4c(=O)c(c5oc6cc(N7CCN(CC(C)C)CC7)cc(OCCCCN7CCN(CCn8ccnc8)CC7)c6nc-5c4c3C2=O)NC(=O)/C(C)=C\C=C\[C@H](C)[C@H](O)[C@@H](C)[C@@H](O)[C@@H](C)[C@H](OC(C)=O)[C@@H]1C` [Compound 6b, (7S,9E,11S,12R,13S,14R,15R,16R,17S,18S,19E,21Z)-2,15,17-trihydroxy-32-(4-{4-[2-(1H-imidazol-1-yl)ethyl]piperazin-1-yl}butoxy)-11-methoxy-3,7,12,14,16,18,22-heptamethyl-30-[4-(2-methylpropyl)piperazin-1-yl]-6,23,37-trioxo-8,27,38-trioxa-24,34-diazahexacyclo[23.11.1.1^4,7.0^5,36.0^26,35.0^28,33]octatriaconta-1(36)2,4,9,19,21,25,28(33)29,31,34-undecaen-13-yl acetate], for which, in the data set with M. tuberculosis H37Rv (setting [3]), the “MBC99 Day 7 (CFU Assay) MBC99 Rel to RMP” value is recorded as 0.23. For the same compound, the MBC in the data set with M. tuberculosis H37Rv was determined as 0.03 µM. For the same compound, the “MIC90 MABA Rel to RMP” value against MTB H37Rv ATCC 27294 came out at 1.6. In addition, in the data set with MTB H37Rv ATCC 27294, the MIC came to 0.021 µM. The negative-log IC50 (pIC50) in data set [1] is 4.29; in data set [2] it was 4.28; at E. coli WT RNAP, 8.22; in the data set on VERO cells (ATCC CRL-81) it was less than 5.10. For the same compound, the “DPX2 Viability @ 6.25 μM” value in the data set with DPX2 cells came to 120%. The “DPX2 Viability @ 25 μM” value in the data set with DPX2 cells is given as 57%.

Take `CO[C@H]1/C=C/O[C@@]2(C)Oc3c(C)c(O)c4c(=O)c(c5oc6cc(N7CCN(C)CC7)cc(OCCCCN7CCN(C(=O)Cn8ccnc8)CC7)c6nc-5c4c3C2=O)NC(=O)/C(C)=C\C=C\[C@H](C)[C@H](O)[C@@H](C)[C@@H](O)[C@@H](C)[C@H](OC(C)=O)[C@@H]1C` [Compound 6c, (7S,9E,11S,12R,13S,14R,15R,16R,17S,18S,19E,21Z)-2,15,17-Trihydroxy-32-(4-{4-[2-(1H-imidazol-1-yl)acetyl]piperazin-1-yl}butoxy)-11-methoxy-3,7,12,14,16,18,22-heptamethyl-30-(4-methylpiperazin-1-yl)-6,23,37-trioxo-8,27,38-trioxa-24,34-diazahexacyclo[23.11.1.1^4,7.0^5,36.0^26,35.0^28,33]octatriaconta-1(36)2,4,9,19,21,25,28(33)29,31,34-undecaen-13-yl acetate]: the “MBC99 Day 7 (CFU Assay) MBC99 Rel to RMP” value with M. tuberculosis H37Rv (setting [3]) was 0.38. Further, the MBC in the data set on M. tuberculosis H37Rv was 0.05 µM. Also, the “MIC90 MABA Rel to RMP” value with MTB H37Rv ATCC 27294 is 2.7. For the same compound, the MIC in the data set with MTB H37Rv ATCC 27294 was 0.039 µM. Also, the negative logarithm of the IC50 (pIC50) is 4.92 in data set [1], 3.64 in data set [2], 8.00 at E. coli WT RNAP and 4.28 in the data set with VERO cells (ATCC CRL-81). Also, the “DPX2 Viability @ 6.25 μM” value in the data set on DPX2 cells was determined as 108%. Further, the “DPX2 Viability @ 25 μM” value in the data set with DPX2 cells is reported as 111%.

On to `CO[C@H]1/C=C/O[C@@]2(C)Oc3c(C)c(O)c4c(=O)c(c5oc6cc(N7CCN(CC(C)C)CC7)cc(OCCCCN7CCN(C(=O)Cn8ccnc8)CC7)c6nc-5c4c3C2=O)NC(=O)/C(C)=C\C=C\[C@H](C)[C@H](O)[C@@H](C)[C@@H](O)[C@@H](C)[C@H](OC(C)=O)[C@@H]1C` [Compound 6d, (7S,9E,11S,12R,13S,14R,15R,16R,17S,18S,19E,21Z)-2,15,17-Trihydroxy-32-(4-{4-[2-(1H-imidazol-1-yl)acetyl]piperazin-1-yl}butoxy)-11-methoxy-3,7,12,14,16,18,22-heptamethyl-30-[4-(2-methylpropyl)piperazin-1-yl]-6,23,37-trioxo-8,27,38-trioxa-24,34-diazahexacyclo[23.11.1.1^4,7.0^5,36.0^26,35.0^28,33]octatriaconta-1(36)2,4,9,19,21,25,28,30,32,34-undecaen-13-yl acetate], for which the “MBC99 Day 7 (CFU Assay) MBC99 Rel to RMP” value with M. tuberculosis H37Rv (setting [3]) is on record as 0.23. Besides, the MBC in the data set on M. tuberculosis H37Rv came out at 0.03 µM. Further, in the data set with MTB H37Rv ATCC 27294, the “MIC90 MABA Rel to RMP” value amounted to 1.3. Also, in the data set with MTB H37Rv ATCC 27294, the MIC came out at 0.024 µM. In addition, the pIC50 was 4.23 in data set [1], 4.03 in data set [2], 8.10 on E. coli WT RNAP and less than 5.10 in the data set on VERO cells (ATCC CRL-81). Further, the “DPX2 Viability @ 6.25 μM” value in the data set with DPX2 cells was 104%. Moreover, the “DPX2 Viability @ 25 μM” value with DPX2 cells is on record as 90%.

What is called pIC50 is −log10 of the IC50, conventionally taken in molar units. A higher pIC50 goes with a low IC50.
